We go through one sequence from paper PMC2866539, “HLA Class I Binding 9mer Peptides from Influenza A Virus Induce CD4^+ T Cell Responses” (PLoS ONE, 2010).

Among the targets are DRA1*0101/DRB1*0301 (Homo sapiens, UniProt P01903+P01911, A100K/A102G/A103R/A169T/F55Y/I96L/K41T/L162R/M171V/P40S/Q125H/Q178H/Q39Y/R42S/S66N/T106N/T262R/W38E/Y61H); DRA1*0101/DRB1*0302 (Homo sapiens, UniProt P01903+P01911, A100K/A102G/A103R/A169T/D57E/F76Y/I96L/K41T/L162R/M171V/P40S/Q125H/Q178H/Q39Y/R42S/S66N/T106N/T262R/V115G/W38E/Y61H); DRA1*0101/DRB3*0301 (Homo sapiens, UniProt P01903+P79483, A169T/A212P/D57E/G115V/L67V/Q178H/R103Q/R40L/Y55F).

What all share (assay): biochemical
Holding throughout (format): binding

The target in another assay is T1, DRA1*0101/DRB1*0101 (Homo sapiens, UniProt P01903+P01911, A100R/D57E/F55L/F60I/F76Y/I96L/L162R/M171V/P40L/Q125E/R42F/V115G/Y59C).
T1 construct: made in house

A further assay deals with T2, DRA1*0101/DRB1*0401 (Homo sapiens, UniProt P01903+P01911, A100K/A169T/F76Y/I96L/K127E/L162R/M171V/N62H/P40V/Q125Y/R42H/S133A/S149N/S66Y/V115G/V209L/W38E).
T2 construct: made in house

Where no end group is shown, it is not given here.

Chain of DRA1*0101/DRB3*0301 (P01903 26-254 limits assumed): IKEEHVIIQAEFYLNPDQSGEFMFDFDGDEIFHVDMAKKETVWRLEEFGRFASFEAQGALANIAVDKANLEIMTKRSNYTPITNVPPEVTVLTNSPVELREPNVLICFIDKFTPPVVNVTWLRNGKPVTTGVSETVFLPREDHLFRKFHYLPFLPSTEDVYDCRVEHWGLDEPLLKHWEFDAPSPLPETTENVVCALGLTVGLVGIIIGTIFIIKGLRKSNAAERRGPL
Chain of DRA1*0101/DRB3*0301 (P79483 30-266 R40L/Y55F/D57E/L67V/R103Q/G115V/A169T/Q178H/A212P limits assumed): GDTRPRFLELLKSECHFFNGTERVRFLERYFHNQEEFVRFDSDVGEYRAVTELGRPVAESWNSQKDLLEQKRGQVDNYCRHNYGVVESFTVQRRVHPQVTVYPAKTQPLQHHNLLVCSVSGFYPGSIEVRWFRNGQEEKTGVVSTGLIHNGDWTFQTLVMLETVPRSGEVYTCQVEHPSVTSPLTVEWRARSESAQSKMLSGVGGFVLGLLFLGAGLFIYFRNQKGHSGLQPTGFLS
Chain of DRA1*0101/DRB1*0301 (P01903 26-254 limits assumed, other chains not shown): as the sequence (P01903 26-254 limits assumed) above

One may read the Kd as the constant that tells how readily two partners part at equilibrium. A high value points to weaker binding. For “YILLKKILSSRFNQM [hypothetical protein 239–253, reference compound]”, the Kd amounted to 435 nM at DRA1*0101/DRB1*0101; 20 nM on DRA1*0101/DRB1*0301; 156 nM on DRA1*0101/DRB1*0302; 107 nM on DRA1*0101/DRB1*0401; 3 nM at DRA1*0101/DRB3*0301.
